According to patent US12544370B2, “Methods for cancer therapy” (ASCENTAGE PHARMA (SUZHOU) CO., LTD., priority 2018, dated 2026):

Columns and labels:
[1] = Phase I study, pharmacokinetics (Example 1); format: in vivo, human
[2] = tested on: patients with chronic phase (CP/CML-CP) or accelerated phase (AP/CML-AP) CML resistant to or intolerant of ≥2 prior TKIs or with BCR-ABL T315I; experiment: Phase 1 trial in resistant CML, further safety (Example 2)
Excerpt: (§1) The eligible patients received continuous treatment until disease progression or unacceptable toxicity, consent withdrawal, or death. The primary efficacy endpoints were major cytogenetic response (MCyR) for CP and complete hematological response (CHR) for AP. MCyR includes partial cytogenetic response (PCyR) and complete cytogenetic response (CCyR). Blood samples were collected at various time points on Day 1-2 and Day 27-28 during cycle 1 for PK analyses.

[3] = Phase 1 trial, pharmacokinetics (Example 2); settings: for half-life / Tmax: human, in vivo; for Tmax: median Tmax
Excerpt: as §1

[4] = tested on: murine Ba/F3 cells expressing BCR-ABL^WT; experiment: Subcutaneous tumors, isogenic Ba/F3 BCR-ABL WT model; format: in vivo
[5] = tested on: murine Ba/F3 cells expressing BCR-ABL^T315I; experiment: Subcutaneous tumors, isogenic Ba/F3 BCR-ABL T315I model; format: in vivo
[6] = tested on: Ba/F3 cells having BCR-ABL^WT
[7] = Example 2, Table 3, treatment related AE, treated population 101

For `Cc1ccc(C(=O)Nc2ccc(CN3CCN(C)CC3)c(C(F)(F)F)c2)cc1C#Cc1cnc2[nH]ncc2c1` [compound of formula (I-A), 3-(2-(1H-pyrazolo[3,4-b]pyridin-5-yl)ethynyl)-4-methyl-N-(4-((4-methylpiperazin-1-yl)methyl)-3-(trifluoromethyl)phenyl)-benzamide], the “time at which peak concentration was reached” value ([1]; oral, 1 mg to 60 mg) was 2 to 8 h, the “dose proportionality of Cmax and AUC0-t” value ([1]; single or multiple oral dose 1 to 60 mg) was “approximately dose proportional increase” and the “death / CTCAE grade 5 events on study” value ([2]; Example 2) was “No death and no CTCAE grade 5 events”. For the same compound, the “ALT elevation, Any Grade” value [2, 7] was 34 (33.7%) n(%), the “ALT elevation, Grade 3, 4” value [2, 7] was 2 (2.0%) n(%) and the “ALT elevation, SAE” value [2, 7] was 0 n(%). The “AST elevation, Any Grade” value [2, 7] was 37 (36.6%) n(%), the “AST elevation, Grade 3, 4” value [2, 7] was 3 (3.0%) n(%) and the “AST elevation, SAE” value [2, 7] was 0 n(%). For the same compound, the “Anemia, Any Grade” value [2, 7] was 25 (24.8%) n(%), the “Anemia, Grade 3, 4” value [2, 7] was 12 (11.9%) n(%) and the “Anemia, SAE” value [2, 7] was 2 (2.0%) n(%). The “Bilirubin elevation, Any Grade” value [2, 7] was 34 (33.7%) n(%), the “Bilirubin elevation, Grade 3, 4” value [2, 7] was 1 (1.0%) n(%) and the “Bilirubin elevation, SAE” value [2, 7] was 0 n(%). For the same compound, the “CPK elevation, Any Grade” value [2, 7] was 20 (19.8%) n(%), the “CPK elevation, Grade 3, 4” value [2, 7] was 2 (2.0%) n(%) and the “CPK elevation, SAE” value [2, 7] was 0 n(%). The “GGT elevation, Any Grade” value [2, 7] was 24 (23.8%) n(%), the “GGT elevation, Grade 3, 4” value [2, 7] was 0 n(%) and the “GGT elevation, SAE” value [2, 7] was 0 n(%). For the same compound, the “Hyperglycaemia, Grade 3, 4” value [2, 7] was 0 n(%), the “Hyperglycaemia, SAE” value [2, 7] was 0 n(%) and the “Hypertriglyceridaemia, Any grade” value [2, 7] was 55 (54.5%) n(%). For the same compound, the “Hypertriglyceridaemia, Grade 3, 4” value [2, 7] was 8 (7.9%) n(%), the “Hypertriglyceridaemia, SAE” value [2, 7] was 0 n(%) and the “Hypocalcaemia, Any grade” value [2, 7] was 34 (33.7%) n(%). The “Hypocalcaemia, Grade 3, 4” value [2, 7] was 0 n(%), the “Hypocalcaemia, SAE” value [2, 7] was 0 n(%) and the “Hypokalaemia, Any Grade” value [2, 7] was 20 (19.8%) n(%). The “Hypokalaemia, Grade 3, 4” value [2, 7] was 0 n(%), the “Hypokalaemia, SAE” value [2, 7] was 0 n(%) and the “Hyponatraemia, Any Grade” value [2, 7] was 23 (22.8%) n(%). The “Hyponatraemia, Grade 3, 4” value [2, 7] was 0 n(%), the “Hyponatraemia, SAE” value [2, 7] was 0 n(%) and the “Myalgia, Grade 3, 4” value [2, 7] was 0 n(%). The “Myalgia, SAE” value [2, 7] was 0 n(%), the “Proteinuria, Any grade” value [2, 7] was 35 (34.7%) n(%) and the “Proteinuria, Grade 3, 4” value [2, 7] was 5 (5.0%) n(%). For the same compound, the “Proteinuria, SAE” value [2, 7] was 0 n(%), the “Pyrexia, Any Grade” value [2, 7] was 18 (17.8%) n(%) and the “Pyrexia, Grade 3, 4” value [2, 7] was 7 (6.9%) n(%). The “Pyrexia, SAE” value [2, 7] was 1 (1.0%) n(%), the “Rash, Any Grade” value [2, 7] was 15 (14.9%) n(%) and the “Rash, Grade 3, 4” value [2, 7] was 2 (2.0%) n(%). The “Rash, SAE” value [2, 7] was 0 n(%), the “Skin mass, Any Grade” value [2, 7] was 10 (9.9%) n(%) and the “Skin mass, Grade 3, 4” value [2, 7] was 1 (1.0%) n(%). For the same compound, the “Skin mass, SAE” value [2, 7] was 0 n(%), the “Skin pigmentation, Any Grade” value [2, 7] was 79 (78.2%) n(%) and the “Skin pigmentation, Grade 3, 4” value [2, 7] was 0 n(%). For the same compound, the “Skin pigmentation, SAE” value [2, 7] was 0 n(%), the “Thrombocytopenia, Any grade” value [2, 7] was 76 (75.2%) n(%) and the “Thrombocytopenia, Grade 3, 4” value [2, 7] was 50 (49.5%) n(%). The “Thrombocytopenia, SAE” value [2, 7] was 6 (5.9%) n(%), the “leukopenia, Grade 3, 4” value [2, 7] was 20 (19.8%) n(%) and the “leukopenia, SAE” value [2, 7] was 0 n(%). The “patients who experienced DLT” value ([2]; Example 2, 60 mg cohort) was “Two out of 3”, the “grade ¾ TRAE thrombocytopenia” value ([2]; Example 2, 101 patients) was 49.5% and the tolerability ([2]; Example 2, 101 patients) was “well-tolerated in all dose cohorts with an exception of 60 mg cohort”. For the same compound, the MTD ([2]; Example 2, QOD) was 50 mg, the “patients who experienced ≥1 treatment related adverse events (TRAEs)” value ([2]; Example 2, all patients) was 101 (100%) n (%) and the “time at which peak concentration was reached” value ([3]; Day 1, single oral administration, 1-60 mg) was 1 to 12 h. For the same compound, the “time at which peak concentration was observed” value ([3]; Day 27, QOD) was 1 to 12 h, the half-life ([3]; mean terminal T1/2, Day 1, 1-60 mg, watching time window 48 hrs) was 1050 to 2190 min and the half-life ([3]; mean terminal T1/2, Day 27, watching time window 48 hrs) was 1190 to 2550 min. The Tmax ([3]; Day 1, 1-60 mg) was 4 to 8 h, the Tmax ([3]; Day 27, QOD) was 4 to 6 h and the “effect on subcutaneous tumors” value [4] was “complete regression”. The “effect on subcutaneous tumors” value [5] was “complete regression” and the “survival rate of isogenic leukemia mice” value [6] was “significantly improved the survival rate”.
